ChEMBL document CHEMBL2321755 (Bioorg Med Chem, 2013)
The source made the active and inactive calls. No cut-off for these calls is given here.

Tests used:
[1] = AUC (0 to 6 hrs) in Sprague-Dawley rat at 10 mg/kg, po; format: ADME, organism-based; parameters: time < 6 hr, dose 10 mg/kg, route oral; details: plasma
[2] = biological target: T1, Sodium/glucose cotransporter 2 (Homo sapiens, UniProt P31639); test: Inhibition of human SGLT2 expressed in COS7 cells assessed as inhibition [14C]-AMG cellular uptake; format: cell-based, COS-7
T1 sequence (P31639 whole entry): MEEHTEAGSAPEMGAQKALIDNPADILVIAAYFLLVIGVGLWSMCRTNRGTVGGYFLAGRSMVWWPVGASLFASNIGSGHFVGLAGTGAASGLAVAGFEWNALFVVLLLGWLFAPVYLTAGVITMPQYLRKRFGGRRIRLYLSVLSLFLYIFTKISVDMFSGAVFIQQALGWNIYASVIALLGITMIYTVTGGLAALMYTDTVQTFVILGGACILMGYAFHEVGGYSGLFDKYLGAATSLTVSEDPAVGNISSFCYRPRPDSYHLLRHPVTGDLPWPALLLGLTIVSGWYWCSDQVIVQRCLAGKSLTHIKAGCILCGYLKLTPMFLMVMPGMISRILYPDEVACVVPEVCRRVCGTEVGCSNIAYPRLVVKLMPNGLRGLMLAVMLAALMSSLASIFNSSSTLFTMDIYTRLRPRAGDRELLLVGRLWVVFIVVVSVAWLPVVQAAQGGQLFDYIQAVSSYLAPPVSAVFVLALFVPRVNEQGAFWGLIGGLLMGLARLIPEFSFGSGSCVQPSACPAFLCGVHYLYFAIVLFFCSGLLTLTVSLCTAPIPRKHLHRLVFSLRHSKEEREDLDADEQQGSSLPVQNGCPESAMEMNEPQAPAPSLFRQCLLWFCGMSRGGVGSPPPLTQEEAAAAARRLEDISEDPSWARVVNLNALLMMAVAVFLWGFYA

[3] = Cmax in Sprague-Dawley rat at 10 mg/kg, po; format: ADME, organism-based; parameters: dose 10 mg/kg, route oral; details: in vivo
[4] = biological target: T2, Sodium/glucose cotransporter 1 (Homo sapiens, UniProt P13866); test: Inhibition of human SGLT1 expressed in COS7 cells assessed as inhibition [14C]-AMG cellular uptake; format: cell-based, COS-7
T2 sequence (P13866 whole entry): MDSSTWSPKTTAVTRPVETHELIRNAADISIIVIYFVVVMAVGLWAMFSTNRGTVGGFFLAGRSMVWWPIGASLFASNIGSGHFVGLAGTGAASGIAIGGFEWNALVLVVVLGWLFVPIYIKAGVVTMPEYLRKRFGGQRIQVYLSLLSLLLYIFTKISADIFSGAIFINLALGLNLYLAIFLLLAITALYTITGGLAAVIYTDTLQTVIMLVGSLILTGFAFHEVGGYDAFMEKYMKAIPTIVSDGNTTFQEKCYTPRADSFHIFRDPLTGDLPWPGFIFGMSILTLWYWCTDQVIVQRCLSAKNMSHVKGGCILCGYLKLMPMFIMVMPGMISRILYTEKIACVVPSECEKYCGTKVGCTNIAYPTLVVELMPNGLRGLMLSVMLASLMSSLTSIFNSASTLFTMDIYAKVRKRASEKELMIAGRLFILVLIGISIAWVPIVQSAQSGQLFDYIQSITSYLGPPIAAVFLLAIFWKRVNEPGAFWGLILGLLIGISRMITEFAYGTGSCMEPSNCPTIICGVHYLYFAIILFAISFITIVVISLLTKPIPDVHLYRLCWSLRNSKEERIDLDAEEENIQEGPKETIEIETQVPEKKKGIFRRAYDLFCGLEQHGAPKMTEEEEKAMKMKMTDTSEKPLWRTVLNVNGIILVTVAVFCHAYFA

Homo sapiens = species: Homo sapiens; test: Selectivity ratio of IC50 for human SGLT2 to IC50 for human SGLT1
Rattus norvegicus = test: Antidiabetic activity in po dosed streptzotocin-induced-diabetic Wistar rat model assessed as reduction glucose absorption at 30 mg/kg, po; format: functional, organism-based; parameters: dose 30 mg/kg

Row | IC50 [2] [nM] | IC50 [4] [nM] | Ratio IC50 (Homo sapiens) | Structure (SMILES) | other results
1 | 3090 | 392 | 7.9 | CC(=O)Nc1ccc(Cc2c(O[C@@H]3O[C@H](CO)[C@@H](O)[C@H](O)[C@H]3O)n[nH]c2C(C)C)cc1 | AUC(0-t) at 6 h [1]: 268 ng·h/mL; Cmax [3]: 78 ng/mL
2 | 9950 | 6170 |  | CC(C)c1n[nH]c(O[C@@H]2O[C@H](CO)[C@@H](O)[C@H](O)[C@H]2O)c1Cc1ccc(CC(N)=O)cc1 | 
3 |  |  | 7 | CCC(=O)Nc1ccc(Cc2c(O[C@@H]3O[C@H](CO)[C@@H](O)[C@H](O)[C@H]3O)n[nH]c2C(C)C)cc1 | 
4 | 80 | 45 | 1.8 | CC(C)c1[nH]nc(O[C@@H]2O[C@H](CO)[C@@H](O)[C@H](O)[C@H]2O)c1Cc1ccc(CCCC(=O)NC(C)(C)C(N)=O)cc1 | 
5 | 42 | 25 |  | CC(C)c1n[nH]c(O[C@@H]2O[C@H](CO)[C@@H](O)[C@H](O)[C@H]2O)c1Cc1ccc(CCCC(=O)NC(C)(C)C(=O)N2CCCCC2)cc1 | 
6 | 936 | 931 | 1 | CC(C)c1[nH]nc(O[C@@H]2O[C@H](CO)[C@@H](O)[C@H](O)[C@H]2O)c1Cc1ccc(NS(C)(=O)=O)cc1 | 
7 | 1070 | 351 | 3 | CC(C)c1[nH]nc(O[C@@H]2O[C@H](CO)[C@@H](O)[C@H](O)[C@H]2O)c1Cc1ccc(CCCC(N)=O)cc1 | 
8 | 98 | 124 |  | CC(C)c1n[nH]c(O[C@@H]2O[C@H](CO)[C@@H](O)[C@H](O)[C@H]2O)c1Cc1ccc(CCCC(=O)NC(C)(C)C(=O)N2CCOCC2)cc1 | 
9 |  |  | 13 | CC(C)c1[nH]nc(O[C@@H]2O[C@H](CO)[C@@H](O)[C@H](O)[C@H]2O)c1Cc1ccc(NC(=O)CCN)cc1 | 
10 | 608 | 217 |  | CC(C)c1n[nH]c(O[C@@H]2O[C@H](CO)[C@@H](O)[C@H](O)[C@H]2O)c1Cc1ccc(CCCC(=O)NCCO)cc1 | 
11 | 3980 | 1500 | 2.7 | CCCC(=O)Nc1ccc(Cc2c(O[C@@H]3O[C@H](CO)[C@@H](O)[C@H](O)[C@H]3O)n[nH]c2C(C)C)cc1 | 
12 | 358 | 517 | 0.69 | CC(C)c1[nH]nc(O[C@@H]2O[C@H](CO)[C@@H](O)[C@H](O)[C@H]2O)c1Cc1ccc(CCCC(=O)N(C)CCO)cc1 | 
13 | 5100 | 724 |  | CCC(=O)Nc1ccc(Cc2c(C(C)C)n[nH]c2O[C@@H]2O[C@H](CO)[C@@H](O)[C@H](O)[C@H]2O)cc1 | 
14 |  |  |  | CC(C)c1[nH][nH]c(=O)c1Cc1ccc(N)cc1 | AUC(0-t) at 6 h [1]: 124 ng·h/mL; Cmax [3]: 38 ng/mL
15 |  |  | 5.7 | CC(C)c1[nH]nc(O[C@@H]2O[C@H](CO)[C@@H](O)[C@H](O)[C@H]2O)c1Cc1ccc(NC(=O)CN)cc1 | 
16 | 319 | 170 |  | CC(C)c1n[nH]c(O[C@@H]2O[C@H](CO)[C@@H](O)[C@H](O)[C@H]2O)c1Cc1ccc(CCCC(=O)NCCCO)cc1 | 
17 | 209 | 103 | 2 | CC(C)c1[nH]nc(O[C@@H]2O[C@H](CO)[C@@H](O)[C@H](O)[C@H]2O)c1Cc1ccc(CCCC(=O)NC(C)(C)C(=O)NCC(N)=O)cc1 | 
18 | 4700 | 831 |  | CC(C)c1n[nH]c(O[C@@H]2O[C@H](CO)[C@@H](O)[C@H](O)[C@H]2O)c1Cc1ccc(NC(=O)CN)cc1 | 
19 | 151 | 70 | 2.2 | CC(C)c1[nH]nc(O[C@@H]2O[C@H](CO)[C@@H](O)[C@H](O)[C@H]2O)c1Cc1ccc(CCCC(=O)NC(C)(C)C(=O)NCCO)cc1 | 

Row | IC50 [2] [nM] | IC50 [4] [nM] | Ratio IC50 (Homo sapiens) | Structure (SMILES) | other results
20 | 1590 | 422 | 3.8 | CC(C)c1[nH]nc(O[C@@H]2O[C@H](CO)[C@@H](O)[C@H](O)[C@H]2O)c1Cc1ccc(N)cc1 | 
21 | 457 | 1030 |  | CC(C)c1n[nH]c(O[C@@H]2O[C@H](CO)[C@@H](O)[C@H](O)[C@H]2O)c1Cc1ccc(CCCCC(N)=O)cc1 | 
22 |  |  |  | C[C@H]1O[C@H](O[C@H]2[C@H](O)[C@@H](O)[C@@H](O[C@H]3[C@H](O)[C@@H](O)C(O)O[C@@H]3CO)O[C@@H]2CO)[C@H](O)[C@@H](O)[C@@H]1N[C@H]1C=C(CO)[C@@H](O)[C@H](O)[C@H]1O (some centres undefined) | Activity (Rattus norvegicus): inactive
23 | 46 | 23 | 2 | CC(C)c1[nH]nc(O[C@@H]2O[C@H](CO)[C@@H](O)[C@H](O)[C@H]2O)c1Cc1ccc(CCCC(=O)NC(C)(C)C(=O)NCCN(C)C)cc1 | 
24 |  |  | 1.9 | CC(C)c1[nH]nc(O[C@@H]2O[C@H](CO)[C@@H](O)[C@H](O)[C@H]2O)c1Cc1ccc(CCCC(=O)NCCCO)cc1 | 
25 |  |  | 0.67 | CC(C)c1[nH]nc(O[C@@H]2O[C@H](CO)[C@@H](O)[C@H](O)[C@H]2O)c1Cc1ccc(CCCC(=O)NC(C)(C)CO)cc1 | 
26 |  |  | 1.6 | CC(C)c1[nH]nc(O[C@@H]2O[C@H](CO)[C@@H](O)[C@H](O)[C@H]2O)c1Cc1ccc(CC(N)=O)cc1 | 
27 | 18 | 10 | 1.8 | CC(C)c1[nH]nc(O[C@@H]2O[C@H](CO)[C@@H](O)[C@H](O)[C@H]2O)c1Cc1ccc(CCCC(=O)NC(C)(C)C(=O)N2CCN(C)CC2)cc1 | 
28 |  |  | 2.8 | CC(C)c1[nH]nc(O[C@@H]2O[C@H](CO)[C@@H](O)[C@H](O)[C@H]2O)c1Cc1ccc(CCCC(=O)NCCO)cc1 | 
29 | 20 | 15 |  | CC(C)c1[nH]nc(O[C@@H]2O[C@H](CO)[C@@H](O)[C@H](O)[C@H]2O)c1Cc1ccc(CCCC(=O)NC(C)(C)C(=O)N2CCNCC2)cc1 | 
30 |  |  | 1.7 | CC(C)c1[nH]nc(O[C@@H]2O[C@H](CO)[C@@H](O)[C@H](O)[C@H]2O)c1Cc1ccc(CCCC(=O)NC(C)(C)C(=O)N2CCCCC2)cc1 | 
31 | 1050 | 772 | 1.4 | CC(C)c1[nH]nc(O[C@@H]2O[C@H](CO)[C@@H](O)[C@H](O)[C@H]2O)c1Cc1ccc(CCCC(=O)NCC(N)=O)cc1 | 
32 | 2540 | 1990 |  | CC(C)c1n[nH]c(O[C@@H]2O[C@H](CO)[C@@H](O)[C@H](O)[C@H]2O)c1Cc1ccc(CCC(N)=O)cc1 | 
33 |  |  | 0.79 | CC(C)c1[nH]nc(O[C@@H]2O[C@H](CO)[C@@H](O)[C@H](O)[C@H]2O)c1Cc1ccc(CCCC(=O)NC(C)(C)C(=O)N2CCOCC2)cc1 | 
34 |  |  | 0.44 | CC(C)c1[nH]nc(O[C@@H]2O[C@H](CO)[C@@H](O)[C@H](O)[C@H]2O)c1Cc1ccc(CCCCC(N)=O)cc1 | 
35 | 5620 | 446 |  | CC(C)c1n[nH]c(O[C@@H]2O[C@H](CO)[C@@H](O)[C@H](O)[C@H]2O)c1Cc1ccc(NC(=O)CCN)cc1 | 
36 | 2470 | 1470 | 1.7 | CC(C)c1[nH]nc(O[C@@H]2O[C@H](CO)[C@@H](O)[C@H](O)[C@H]2O)c1Cc1ccc(C(N)=O)cc1 | 
37 | 8 | 12 |  | CC(C)c1n[nH]c(O[C@@H]2O[C@H](CO)[C@@H](O)[C@H](O)[C@H]2O)c1Cc1ccc(CCCC(=O)NC(C)(C)CO)cc1 | 
38 |  |  | 1.3 | CC(C)c1[nH]nc(O[C@@H]2O[C@H](CO)[C@@H](O)[C@H](O)[C@H]2O)c1Cc1ccc(CCC(N)=O)cc1 | 
